Series [1] has as its system SOD1 transgenic mice. Particulars: for Mean Survival: drinking water from 60 days of age, N=15. On the procedure: (§1) Another group of 15 mice served as controls.
(§2) The drugs were administered by drinking water starting at 60 days of age. The daily dosages were calculated based on a daily water intake of 6 ml. Fresh solutions were prepared once a week with the total consumed volume measured in order to ensure a constant daily and weekly dose. […] The study was done blindly, meaning that the treatment and the preparation of the drugs were conducted by separate individuals.
The clinical condition of the mice was monitored daily starting at 40 days. The onset of clinical signs was scored by examining the mice for tremors and/or shaking of the limbs, and the position of one or both hind limbs (hanging rather than splaying out) when the mice were suspended in the air by their tail. The age of clinical onset was determined by the age (days) at which loss of splay or tremors of hind limbs were observed. Examining the mice for the loss of righting reflex determined the end stage of the disease. The mice were sacrificed if they could not right themselves within 30 seconds when placed on either side on a flat surface. This decision was made by an independent veterinarian as requested by the animal protocol. The treatment protocol was approved by the Regierungspräsident Tübingen (35/9185.81-3). The treatment and clinical evaluation were conducted by separate individuals, and thus the neurological signs for determining onset and end stage of disease were scored in a blinded manner.
(§3) Data are expressed as the mean +/−standard error of the mean (SEM). Rotarod testing and weight were compared by analysis of variance (ANOVA). Survival data were analysed by the Mantel-Cox proportional hazard model. Statistical significance was tested by one-way ANOVA followed by post-hoc Student-Newman-Keuls comparison with the SPSS-PC software program (SPSS, Chicago Ill.).

Series [2] relates to SOD1 transgenic mice. Particulars: mouse, in vivo. On the procedure:
as §2
(§4) Mice were observed daily (including weekends) and weighed weekly. Motor performance was assessed from 40 days of age using the rotarod apparatus to measure the night activity of the mice from 8 p.m.-8 a.m. (LMTB, Berlin). The activity of the animals was recorded individually by a computerized system and assessed daily, including weekends. For statistical evaluation, the rotarod activity was normalized to the mean activity of each animal from day 40 to day 60.
The clinical condition of the mice was monitored daily starting at 40 days. The onset of clinical signs was scored by examining the mice for tremors and/or shaking of the limbs, and the position of one or both hind limbs (hanging rather than splaying out) when the mice were suspended in the air by their tail. The age of clinical onset was determined by the age (days) at which loss of splay or tremors of hind limbs were observed. Examining the mice for the loss of righting reflex determined the end stage of the disease. […]

Series [3] relates to SOD1 transgenic mice. Put plainly: Running wheel (rotarod) night activity of SOD1 transgenic mice. The class given is in vivo. More on the design: unit not given here. On the procedure:
as §1, §2, §4, §3
(In general: In the rotarod test animals must keep their balance on a rotating rod.)

Values joined by “and” are separate entries in the source; they are usually repeats but may differ in a detail not shown here. Equal entries are not always repeated. Where two headings read alike, the source gives them in different places.

As for `C#CCN[C@@H]1CCc2ccccc21` [rasagiline, R(+)-N-propargyl-1-aminoindan], the “Mean Survival” value in series [1] (rasagiline 0.5 mg/kg per day) was 224 days and 223.8667 days; in series [1] (rasagiline 2.0 mg/kg per day), 239.8667 days and 239.8677 days. The “increase of life span vs controls” value in series [1] (rasagiline 2.0 mg/kg per day, p<0.001) is 29 days. Further, in series [2], the “signs of overt toxicity” value is recorded as “did not observe any signs of overt toxicity”. The running wheel activity in series [3] (rasagiline 0.5 mg/kg, Weeks 9-12) is 10087; in series [3] (rasagiline 0.5 mg/kg, Weeks 13-16), 9037.14; in series [3] (rasagiline 0.5 mg/kg, Weeks 17-20), 8124.12; in series [3] (rasagiline 0.5 mg/kg, Weeks 21-24), 6070.08; in series [3] (rasagiline 0.5 mg/kg, Weeks 25-28), 4236.96; in series [3] (rasagiline 0.5 mg/kg, Weeks 29-36) it was 1196.69. Also, the running wheel activity came out at 11056 in series [3] (rasagiline 2.0 mg/kg, Weeks 9-12); 9999.44 in series [3] (rasagiline 2.0 mg/kg, Weeks 13-16); 8787.09 in series [3] (rasagiline 2.0 mg/kg, Weeks 17-20); 7873.22 in series [3] (rasagiline 2.0 mg/kg, Weeks 21-24); 5902.76 in series [3] (rasagiline 2.0 mg/kg, Weeks 25-28); 2147.29 in series [3] (rasagiline 2.0 mg/kg, Weeks 29-36).

For the compound `Nc1nc2ccc(OC(F)(F)F)cc2s1` [riluzole, 2-amino-6-trifluoromethoxy benzothiazole], the running wheel activity in series [3] (riluzole 30 mg/kg, Weeks 9-12) stood at 9729.58; in series [3] (riluzole 30 mg/kg, Weeks 13-16), 7556.57; in series [3] (riluzole 30 mg/kg, Weeks 17-20) it was 7033.85; in series [3] (riluzole 30 mg/kg, Weeks 21-24), 4687.05; in series [3] (riluzole 30 mg/kg, Weeks 25-28), 2696.11; in series [3] (riluzole 30 mg/kg, Weeks 29-36) it was 1249.13.
